Experimental data published in patent US10011615B2, “Heterobicyclo-substituted [1,2,4]triazolo[1,5-c]quinazolin-5-amine compounds with A2A anatagonist properties” (Merck Sharp & Dohme Corp., priority 2012, dated 2018).
Several values for one entry are separate records, joined by “and”; a condition that tells them apart may be missing. Equal entries are not always repeated.

Target: T1, human A2a receptor (Homo sapiens, UniProt P29274)
T1 construct: purchased Perkin-Elmer RBHA2AM400UA; host or cells: HEK293 cell membranes
Assay: A2a receptor competition binding assay using Scintillation Proximity technology
Conditions: membranes from HEK293 cells expressing human A2a receptor; 0.5 nM tritiated radioligand; SPA beads; 1 h room temperature
Experimental: Binding affinities of compounds of the invention for the human A2a receptor were determined in a competition binding assay using Scintillation Proximity technology. Thus, 0.3 μg of membranes from HEK293 cells expressing the human A2a receptor were incubated with a compound of the invention at concentrations ranging from 3000 nM to 0.15 nM in a reaction mixture containing also 0.5 nM of a tritiated form of 5-amino-7-[2-phenethyl]-2-(furan-2-yl)-7H-pyrazolo[4,3-e][1,2,4]triazolo[1,5-c]pyrimidine (the tritiated compound) and 100 μg of wheat germ agglutin-coated yttrium silicate SPA beads for one hour at room temperature with agitation. The beads were then allowed to settle to the bottom of the wells for 1 hr, after which the membrane-associated radioactivity was determined by scintillation counting in a TopCount microplate reader. Ki values were determined using the Cheng-Prusoff equation.
Summary of Materials and Methods Used in A2a Activity Determination:
HEK293 cells expressing the human, rat, dog or monkey adenosine 2a receptor (Purchased from Perkin-Elmer # RBHA2AM400UA).
The Tritiated compound was prepared in-house by MRL Radiochemistry according to published methods.
Wheat germ agglutinin-coated yttrium silicate SPA beads (GE Healthcare#RPNQ0023). Dilute to 25 mg/ml in assay buffer.
Assay Buffer was prepared in house: Dulbecco's calcium and magnesium free phosphate buffered saline+10 mM MgCl2
Adenosine deaminase from calf intestine, 10 mg/2 ml (Roche) 10 102 105 001).
A2a antagonist standard (9-chloro-1-(2-furanyl)-[1,2,4]triazolo1,5-c]quinazolin-5-amine from Tocris Bioscience)
Make eight 1:3 serial dilutions in 100% DMSO from a 3 mM compound stock
Transfer 50 nl of compound into a 384-well OptiPlate (Perkin Elmer).
Typically, final concentrations of compound used in the assay ranged from 3000 nM to 0.152 nM.
Dilute a solution of the Tritiated compound to 1.25 nM in assay buffer. This is a 2.5× solution. The final concentration in the assay is 0.5 nM. Calculate the concentration by counting two 5 μl aliquots.
Use 0.25 ug of membrane/well. Dilute membranes to 9.7 μg/ml in assay buffer. Treat with 20 ug/ml adenosine deaminase (ADA) for 15 minutes at room temperature to degrade endogenous adenosine.
Use 100 μg/well wheat germ agglutinin-coated yttrium silicate SPA beads.
Mix ADA-treated membranes and SPA beads together for 30 min prior to assay.
To the Perkin-Elmer Optiplate-384 containing the compound titration add 20 μl of 2.5× solution of the Tritiated compound and 30 μl of the membrane-bead mixture. Incubate for one hour at room temperature with agitation.
Include total binding (assay buffer+1% DMSO) and non-specific binding (CGS15943, 1 μM) wells.
Allow the beads to settle for one hour.
A curve fitting program (i.e., Prism, Activity Base, Chemcart) is used to determine the EC50. The Ki value is calculated using the Cheng-Prusoff equation: K i=EC50/(1+(radioligand concentration/Kd)).

T1 sequence (P29274 whole entry): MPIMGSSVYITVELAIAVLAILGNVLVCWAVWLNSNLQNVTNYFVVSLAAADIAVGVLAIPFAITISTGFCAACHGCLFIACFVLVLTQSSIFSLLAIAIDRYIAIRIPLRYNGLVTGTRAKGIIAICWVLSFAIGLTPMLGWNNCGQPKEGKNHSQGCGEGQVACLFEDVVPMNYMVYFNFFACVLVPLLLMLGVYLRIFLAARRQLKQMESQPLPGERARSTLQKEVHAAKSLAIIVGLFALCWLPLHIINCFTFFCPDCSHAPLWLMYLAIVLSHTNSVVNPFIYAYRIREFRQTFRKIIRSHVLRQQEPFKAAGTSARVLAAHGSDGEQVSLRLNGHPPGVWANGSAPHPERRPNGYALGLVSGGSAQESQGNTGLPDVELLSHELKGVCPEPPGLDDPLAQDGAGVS

EC50 | Compound
2.9 nM | COc1cccc2c1nc(N)n1nc(CCN3CCc4ccc(-c5cnc(C(F)(F)F)nc5)cc4C3)nc21 [Ex-187, 7-methoxy-2-(2-(7-(2-(trifluoromethyl)pyrimidin-5-yl)-3,4-dihydroisoquinolin-2(1H)-yl)ethyl)-[1,2,4]triazolo[1,5-c]quinazolin-5-amine]
191 nM | COc1cccc2c1nc(N)n1nc(CN3CCN(C)Cc4cc(Cl)ccc43)nc21 [Ex-136, 2-((7-chloro-4-methyl-2,3,4,5-tetrahydro-1H-benzo[e][1,4]diazepin-1-yl)methyl)-7-methoxy-[1,2,4]triazolo[1,5-c]quinazolin-5-amine]
10.1 nM and 14.3 nM | COc1cccc2c1nc(N)n1nc(CC(CF)N3Cc4cccnc4C3)nc21 (centres unmarked) [Ex-104]
2 nM | COc1cccc2c1nc(N)n1nc(CN3CCCCc4ccccc43)nc21 [Ex-128, 7-methoxy-2-((2,3,4,5-tetrahydro-1H-benzo[b]azepin-1-yl)methyl)-[1,2,4]biazolo[1,5-c]quinazolin-5-amine]
1.5 nM | COc1cccc2c1nc(N)n1nc(CN3CCOc4ccccc43)nc21 [Ex-120, 2-((2H-benzo[b][1,4]oxazin-4(3H)-yl)methyl)-7-methoxy-[1,2,4]triazolo[1,5-c]quinazolin-5-amine]
1.1 nM | COc1cccc2c1nc(N)n1nc(CCN3CCc4c(C5CC5)n[nH]c4C3)nc21 [Ex-40, 2-(2-(3-cyclopropyl-4,5-dihydro-1H-pyrazolo[3,4-c]pyridin-6(7H)-yl)ethyl)-7-methoxy-[1,2,4]triazolo[1,5-c]quinazolin-5-amine]
4 nM | COc1cccc2c1nc(N)n1nc(CCN3CCn4c(nnc4SC)C3)nc21 [Ex-1, 7-methoxy-2-(2-(3-(methylthio)-5,6-dihydro-[1,2,4]triazolo[4,3-a]pyrazin-7(8H)-yl)ethyl)-[1,2,4]triazolo[1,5-c]quinazolin-5-amine]
2.2 nM | CCc1ncc2n1CCN(CCc1nc3c4cccc(OC)c4nc(N)n3n1)C2 [Ex-13, 2-(2-(3-ethyl-5,6-dihydroimidazo[1,5-a]pyrazin-7(8H)-yl)ethyl)-7-methoxy-[1,2,4]triazolo[1,5-c]quinazolin-5-amine]
1.5 nM | COc1cccc2c1nc(N)n1nc(CCN3Cc4[nH]nc(-c5ccccc5)c4C3)nc21 [Ex-50, 7-methoxy-2-(2-(3-phenylpyrrolo[3,4-c]pyrazol-5(1H,4H,6H)-yl)ethyl)-[1,2,4]triazolo[1,5-c]quinazolin-5-amine]
2.9 nM | COc1cccc2c1nc(N)n1nc(CCN3Cc4ccc(N5CCN(c6ccc(F)cc6)CC5)nc4C3)nc21 [Ex-71]
8.3 nM | COc1cccc2c1nc(N)n1nc(C[C@@H](C(F)F)N3Cc4cccnc4C3)nc21 [Ex-103]
16.6 nM | Nc1nc2c(Br)cccc2c2nc(CN3Cc4cccnc4C3)nn12 [Ex-195]
40.8 nM | COc1cccc2c1nc(N)n1nc(CN3CCc4ncc(C(F)(F)F)cc4C3)nc21 [Ex-129, 7-methoxy-2-((3-(trifluoromethyl)-7,8-dihydro-1,6-naphthyridin-6(5H)-yl)methyl)-[1,2,4]tria.zolo[1,5-c]quinazolin-5-amine]
20.5 nM | COc1cccc2c1nc(N)n1nc(CN3CCc4cc(F)ccc4C3)nc21 [Ex-130, 2-((6-fluoro-3,4-dihydroisoquinolin-2(1H)-yl)methyl)-7-methoxy-[1,2,4]triazolo[1,5-c]quinazolin-5-amine]
2.1 nM | COc1cccc2c1nc(N)n1nc(CN3CCCc4cccnc43)nc21 [Ex-161, 2-((3,4-dihydro-1,8-naphthyridin-1(2H)-yl)methyl)-7-methoxy-[1,2,4]triazolo[1,5-c]quinazolin-5-amine]
0.9 nM | COc1cccc2c1nc(N)n1nc(CCN3CCn4cc(C(F)(F)F)nc4C3)nc21 [Ex-58, 7-methoxy-2-(2-(2-(trifluoromethyl)-5,6-dihydroimidazo[1,2-a]pyrazin-7(8H)-yl)ethyl)-[1,2,4]triazolo[1,5-c]quinazolin-5-amine]

EC50 | Compound
207 nM | COCc1cccc2c1nc(N)n1nc(CN3Cc4cccnc4C3)nc21 [Ex-198, 2-((5H-Pyrrolo[3,4-b]pyridin-6(7H)-yl)methyl)-7-(methoxymethyl)-[1,2,4]triazolo[1,5-c]quinazolin-5-amine]
0.9 nM | COc1cccc2c1nc(N)n1nc(CCN3CCc4sc(C)nc4C3)nc21 [Ex-25, 7-methoxy-2-(2-(2-methyl-6,7-dihydrothiazolo[4,5-c]pyridin-5(4H)-yl)ethyl)-[1,2,4]triazolo[1,5-c]quinazolin-5-amine]
6.7 nM | CCc1nnc2n1CCN(CCc1nc3c4cccc(OC)c4nc(N)n3n1)C2 [Ex-22, 2-(2-(3-ethyl-5,6-dihydro-[1,2,4]triazolo[4,3-a]pyrazin-7(8H)-yl)ethyl)-7-methoxy-[1,2,4]triazolo[1,5-c]quinazolin-5-amine]
13.3 nM | COc1cccc2c1nc(N)n1nc(CCN3Cc4cnc(C(F)(F)F)nc4C3)nc21 [Ex-18, 7-methoxy-2-(2-(2-(trifluoromethyl)-5H-pyrrolo[3,4-d]pyrimidin-6(7H)-yl)ethyl)-[1,2,4]triazolo[1,5-c]quinazolin-5-amine]
1.1 nM | COc1cccc2c1nc(N)n1nc(CCN3CCc4nc(C5CC5)sc4C3)nc21 [Ex-30, 2-(2-(2-cyclopropyl-6,7-dihydrothiazolo[5,4-c]pyridin-5(4H)-yl)ethyl)-7-methoxy-[1,2,4]triazolo[1,5-c]quinazolin-5-amine]
2.5 nM | COc1cccc2c1nc(N)n1nc(CCN3CCCn4nc(C#N)cc4C3)nc21 [Ex-61, 5-(2-(5-amino-7-methoxy-[1,2,4]triazolo[1,5-c]quinazolin-2-yl)ethyl)-5,6,7,8-tetrahydro-4H-pyrazolo[1,5-a][1,4]diazepine-2-carbonitrile]
8.5 nM | COc1cccc2c1nc(N)n1nc(CN3Cc4ccc(C(F)(F)F)cc4C3)nc21 [Ex-127, 7-methoxy-2-((2,3,4,5-(trifluoromethyl)isoindolin-2-yl)methyl)-[1,2,4]triazolo[1,5-c]quinazolin-5-amine]
15.9 nM | Nc1nc2c(F)cccc2c2nc(CCN3Cc4cccnc4C3)nn12 [Ex-83, 2-[2-(5,7-dihydro-6H-pyrrolo[3,4-b]pyridin-6-yl)ethyl]-7-fluoro[1,2,4]triazolo[1,5-c]quinazolin-5-amine]
4.6 nM | COc1cccc2c1nc(N)n1nc(CCN3Cc4ccc(F)cc4C3)nc21 [Ex-48, 2-(2-(5-fluoroisoindolin-2-yl)ethyl)-7-methoxy-[1,2,4]triazolo[1,5-c]quinazolin-5-amine]
5.4 nM | COc1cccc2c1nc(N)n1nc(CCN3Cc4cccnc4C3)nc21 [Ex-49, 2-(2-(5H-pyrrolo[3,4-b]pyridin-6(7H)-yl)ethyl)-7-methoxy-[1,2,4]triazolo[1,5-c]quinazolin-5-amine]
6.1 nM | COc1cccc2c1nc(N)n1nc(CN3CCc4ccc(-c5cnc(C(F)(F)F)nc5)cc4C3)nc21 [Ex-179, 7-methoxy-2-((7-(2-(trifluoromethyl)pydmidin-5-yl)-3,4-dihydroisoquinolin-2(1H)-yl)methyl)-[1,2,4]triazolo[1,5-c]quinazolin-5-amine]
9 nM | COc1cccc2c1nc(N)n1nc(CN3CCc4ccc(-c5cnn(C)c5)cc4C3)nc21 [Ex-180]
5.9 nM | COc1cccc2c1nc(N)n1nc(CN3Cc4ccc(F)cc4C3)nc21 [Ex-117, 2-((5-fluoroisoindolin-2-yl)methyl)-7-methoxy-[1,2,4]triazolo[1,5-c]quinazolin-5-amine]
6.2 nM | COc1cccc2c1nc(N)n1nc(CCN3Cc4ccccc4C(C)(C)C3)nc21 [Ex-62, 2-(2-(4,4-dimethyl-3,4-dihydroisoquinolin-2(1H)-yl)ethyl)-7-methoxy-[1,2,4]triazolo[1,5-c]quinazolin-5-amine]
4.6 nM | CCOC(=O)c1nnc2n1CCN(CCc1nc3c4cccc(OC)c4nc(N)n3n1)C2 [Ex-4, ethyl 7-(2-(5-amino-7-methoxy-[1,2,4]triazolo[1,5-c]quinazolin-2-yl)ethyl)-5,6,7,8-tetrahydro-[1,2,4]triazolo[4,3-a]pyrazine-3-carboxylate]
147 nM | Nc1nc2c(OCCF)cccc2c2nc(CN3CCc4cccnc4C3)nn12 [Ex-202]
